Experimental data taken from article PMC11192081, “Evidence that the cold- and menthol-sensing functions of the human TRPM8 channel evolved separately” (Science Advances, 2024).

Columns and labels:
AncVert TRPM8 = system: T1, AncVert TRPM8; experiment: Fluoforte calcium flux assay, HEK-293T stable cells; assay type: cell-based; conditions: Homo sapiens
T1 construct: tetramer

AncMam TRPM8 = system: T2, AncMam TRPM8; experiment: as above; assay type: cell-based; conditions: Homo sapiens
T2 construct: tetramer

Compound `CC(C)[C@@H]1CC[C@@H](C)C[C@H]1O` [menthol] has an EC50 (AncVert TRPM8) of 140 ± 40 µM and an EC50 (AncMam TRPM8) of 10 ± 1 µM.
